System: peritoneal carcinomatosis (Pro b cells)
Test: In vivo anti-tumor activity against peritoneal carcinomatosis in BDIX rats
Details: for Number of rats with carcinomatoses of class 0 / Number of rats with carcinomatoses of class 1 / Number of rats with carcinomatoses of class 2 / Number of rats with carcinomatoses of class 3 / Number of rats with carcinomatoses of class 4: 10 rats, 6 weeks; for Number of rats with carcinomatoses of class 0: class 0: no tumor nodules visible; for Number of rats with carcinomatoses of class 1: class 1: a few nodules less than 0.2 cm; for Number of rats with carcinomatoses of class 2: class 2: nodules too many to be counted, up to 0.5 cm; for Number of rats with carcinomatoses of class 3: class 3: tumors up to 1 cm; for Number of rats with carcinomatoses of class 4: class 4: cavity entirely invaded by tumors
Procedure: The in vivo biological activity of disaccharide A was investigated for anti-tumor activity against peritoneal carcinomatosis induced in BDIX rats. Pro b cells obtained according to the method of Martin (Martin, F. et al, International Journal of Cancer, Volume 32, pages 623-627 [1983]) were injected intraperitoneally in rat (10^6 cells per rat). After 10 days numerous solid nodules appear in the mesenterium in the milky spots and progressively invade the peritoneal cavity (see Lagadec, P. et al, Invasion and Metastasis, Volume 7, pages 83-95 [1987]). Hemorrhagic ascitis appeared after 4-5 weeks and all rats died within 8-12 weeks.
Immunotherapy started 14 days after injection of the tumoral Pro b cells. The treatment consisted of intraperitoneal injections of disaccharide A; doses 0.1, 0.3 and 0.8 mg/kg bodyweight. Disaccharide A was dissolved in an aqueous solution of 0.9% NaCl and 0.1% triethylamine. The rats received five injections once every 3.5 days. A control group was injected with the aqueous solution. Both groups comprised 10 rats.
6 Weeks after the injection of the tumoral cells autopsy was carried out. The extent of peritoneal carcinomatosis was evaluated blindly and the rats were classified in the order of increasing carcinomatosis.
The classification of the nodule size is as follows:
class 0: no tumor nodules visible;
class 1: a few nodules of size less than 0.2 cm;
class 2: nodules too many to be counted size up to 0.5 cm;
class 3: tumors in size up to 1 cm;
class 4: tumoral cavity entirely invaded by tumors, size a few cm.
The statistical significance of the anti-tumoral activity was calculated by the Kruskal-Wallis test (1) or (2) using variance analysis.

SMILES: CCCCCCCCCCCC(=O)O[C@H](CCCCCCCCCCC)CC(=O)N[C@H]1[C@H](OC[C@H]2O[C@H](OP(=O)(O)O)[C@H](NC(=O)C[C@H](O)CCCCCCCCCCC)[C@@H](O)[C@@H]2O)O[C@H](CO)[C@@H](OP(=O)(O)O)[C@@H]1O [disaccharide A, 2-Deoxy-6-O-[2-deoxy-2-[(R)-3-dodecanoyloxytetradecanoylamino]-4-O-phosphono-β-D-glucopyranosyl]-2-[(R)-3-hydroxytetradecanoylamino]-α-D-glucopyranosyl dihydrogenphosphate]
- Ascitis volume, Average (0.1 mg/kg i.p.): 7 ± 7 ml/rat
- Ascitis volume, Limits (0.1 mg/kg i.p.): 0-18 ml/rat
- Number of rats with carcinomatoses of class 0 (0.1 mg/kg i.p.): 0
- Number of rats with carcinomatoses of class 1 (0.1 mg/kg i.p.): 2
- Number of rats with carcinomatoses of class 2 (0.1 mg/kg i.p.): 0
- Number of rats with carcinomatoses of class 3 (0.1 mg/kg i.p.): 4
- Number of rats with carcinomatoses of class 4 (0.1 mg/kg i.p.): 4
- Ascitis volume, Average (0.3 mg/kg i.p.): 2 ± 6 ml/rat
- Ascitis volume, Limits (0.3 mg/kg i.p.): 0-20 ml/rat
- Number of rats with carcinomatoses of class 0 (0.3 mg/kg i.p.): 2
- Number of rats with carcinomatoses of class 1 (0.3 mg/kg i.p.): 3
- Number of rats with carcinomatoses of class 2 (0.3 mg/kg i.p.): 2
- Number of rats with carcinomatoses of class 3 (0.3 mg/kg i.p.): 2
- Number of rats with carcinomatoses of class 4 (0.3 mg/kg i.p.): 1
- Ascitis volume, Average (0.8 mg/kg i.p.): 0 ± 1 ml/rat
- Ascitis volume, Limits (0.8 mg/kg i.p.): 0-2 ml/rat
- Number of rats with carcinomatoses of class 0 (0.8 mg/kg i.p.): 1
- Number of rats with carcinomatoses of class 1 (0.8 mg/kg i.p.): 6
- Number of rats with carcinomatoses of class 2 (0.8 mg/kg i.p.): 1
- Number of rats with carcinomatoses of class 3 (0.8 mg/kg i.p.): 1
- Number of rats with carcinomatoses of class 4 (0.8 mg/kg i.p.): 1
- Anti-tumoral effect, in words (peritoneal carcinomatosis): dose-dependent anti-tumoral effect
